The source of these data is US8394952B2 (Vertex Pharmaceuticals Incorporated, priority 2006, dated 2013).

SMILES strings stand for the structures.

Sequence of Plk1 (P53350 20-338): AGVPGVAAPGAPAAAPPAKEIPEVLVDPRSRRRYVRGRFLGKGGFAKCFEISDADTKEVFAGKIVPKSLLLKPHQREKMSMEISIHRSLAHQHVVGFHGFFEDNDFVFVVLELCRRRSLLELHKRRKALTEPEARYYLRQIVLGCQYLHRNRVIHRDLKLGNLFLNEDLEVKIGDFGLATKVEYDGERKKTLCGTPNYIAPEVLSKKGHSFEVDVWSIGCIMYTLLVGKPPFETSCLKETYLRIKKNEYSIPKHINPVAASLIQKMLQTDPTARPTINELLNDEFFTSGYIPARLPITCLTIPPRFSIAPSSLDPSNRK

This assay addresses Plk1 (Homo sapiens, UniProt P53350). Put plainly: biochemical.
As to `COc1cc(C(=O)O)ccc1Nc1ncc2c(n1)N(C1CCCC1)CC(C)(C)C(=O)N2C` [Compound I-120, 4-(9-cyclopentyl-6,7,8,9-tetrahydro-5,7,7-trimethyl-6-oxo-5H-pyrimido[4,5-b][1,4]diazepin-2-ylamino)-3-methoxybenzoic acid], the Ki – broadly, the dissociation constant of the complex between target and ligand, obtained from inhibition or displacement – is 10 to 100 nM.
The figure for `CNC(=O)c1ccc(Nc2ncc3c(n2)N(Cc2ccccc2)CC(C)(C)C(=O)N3C)c(OC)c1` [Compound I-122, 4-(9-benzyl-6,7,8,9-tetrahydro-5,7,7-trimethyl-6-oxo-5H-pyrimido[4,5-b][1,4]diazepin-2-ylamino)-3-methoxy-N-methylbenzamide] is 10 to 100 nM; for `CNC(=O)c1ccc(Nc2ncc3c(n2)N(CC2CCC2)CC(C)(C)C(=O)N3C)c(OC)c1` [Compound I-123, 4-(9-(cyclobutylmethyl)-6,7,8,9-tetrahydro-5,7,7-trimethyl-6-oxo-5H-pyrimido[4,5-b][1,4]diazepin-2-ylamino)-3-methoxy-N-methylbenzamide] it is less than 10 nM; for `CN1C(=O)C(C)(C)CN(C2CCCC2)c2nc(Nc3cccc4c3CNC4=O)ncc21` [Compound I-124, 2-(1-oxoisoindolin-4-ylamino)-9-cyclopentyl-8,9-dihydro-5,7,7-trimethyl-5H-pyrimido[4,5-b][1,4]diazepin-6(7H)-one] it is 10 to 100 nM.
The figure for `CN1C(=O)Cc2cc(Nc3ncc4c(n3)N(C3CCCC3)CC(C)(C)C(=O)N4C)ccc21` [Compound I-125, 2-(1-methyl-2-oxoindolin-5-ylamino)-9-cyclopentyl-8,9-dihydro-5,7,7-trimethyl-5H-pyrimido[4,5-b][1,4]diazepin-6(7H)-one] is 10 to 100 nM.
The figure for `COc1cc(C(=O)NC2CCCC2)ccc1Nc1ncc2c(n1)N(C1CCCC1)CC(C)(C)C(=O)N2C` [Compound I-129, 4-(9-cyclopentyl-6,7,8,9-tetrahydro-5,7,7-trimethyl-6-oxo-5H-pyrimido[4,5-b][1,4]diazepin-2-ylamino)-N-cyclopentyl-3-methoxybenzamide] is less than 10 nM; for `COc1cc(C(=O)NC(C)(C)C)ccc1Nc1ncc2c(n1)N(C1CCCC1)CC(C)(C)C(=O)N2C` [Compound I-130, 4-(9-cyclopentyl-6,7,8,9-tetrahydro-5,7,7-trimethyl-6-oxo-5H-pyrimido[4,5-b][1,4]diazepin-2-ylamino)-N-tert-butyl-3-methoxybenzamide] it is less than 10 nM; for `COc1cc(C(=O)NCC2CC2)ccc1Nc1ncc2c(n1)N(C1CCCC1)CC(C)(C)C(=O)N2C` [Compound I-131, 4-(9-cyclopentyl-6,7,8,9-tetrahydro-5,7,7-trimethyl-6-oxo-5H-pyrimido[4,5-b][1,4]diazepin-2-ylamino)-N-(cyclopropylmethyl)-3-methoxybenzamide] it is less than 10 nM.
For the compound `COc1cc(C(=O)NCCC(F)(F)F)ccc1Nc1ncc2c(n1)N(C1CCCC1)CC(C)(C)C(=O)N2C` [Compound I-132, 4-(9-cyclopentyl-6,7,8,9-tetrahydro-5,7,7-trimethyl-6-oxo-5H-pyrimido[4,5-b][1,4]diazepin-2-ylamino)-N-(3,3,3-trifluoropropyl)-3-methoxybenzamide], the inhibition constant Ki is less than 10 nM.
The same measure for `COc1cc(C(=O)NC2CCCCC2)ccc1Nc1ncc2c(n1)N(C1CCCC1)CC(C)(C)C(=O)N2C` [Compound I-133, 4-(9-cyclopentyl-6,7,8,9-tetrahydro-5,7,7-trimethyl-6-oxo-5H-pyrimido[4,5-b][1,4]diazepin-2-ylamino)-N-cyclohexyl-3-methoxybenzamide]: less than 10 nM.
The same measure for `COc1cc(C(=O)NC2CCOCC2)ccc1Nc1ncc2c(n1)N(C1CCCC1)CC(C)(C)C(=O)N2C` [Compound I-134, 4-(9-cyclopentyl-6,7,8,9-tetrahydro-5,7,7-trimethyl-6-oxo-5H-pyrimido[4,5-b][1,4]diazepin-2-ylamino)-N-(tetrahydro-2H-pyran-4-yl)-3-methoxybenzamide]: less than 10 nM.
Turning to `CCOc1cc(C(=O)NC2CCN(C(C)C)CC2)ccc1Nc1ncc2c(n1)N(C1CCCC1)CC(C)(C)C(=O)N2C` [Compound I-135, 4-(9-cyclopentyl-6,7,8,9-tetrahydro-5,7,7-trimethyl-6-oxo-5H-pyrimido[4,5-b][1,4]diazepin-2-ylamino)-3-ethoxy-N-(1-isopropylpiperidin-4-yl)benzamide], the Ki was less than 10 nM.
The same measure for `COc1cc(C(=O)NC(C)(CO)CO)ccc1Nc1ncc2c(n1)N(C1CCCC1)CC(C)(C)C(=O)N2C` [Compound I-136, 4-(9-cyclopentyl-6,7,8,9-tetrahydro-5,7,7-trimethyl-6-oxo-5H-pyrimido[4,5-b][1,4]diazepin-2-ylamino)-N-(1,3-dihydroxy-2-methylpropan-2-yl)-3-methoxybenzamide]: less than 10 nM.
The figure for `CN1C(=O)C(C)(C)CN(C2CCCC2)c2nc(Nc3cccc(-c4cc[nH]n4)c3)ncc21` [Compound I-137, 2-(3-(1H-pyrazol-3-yl)phenylamino)-9-cyclopentyl-8,9-dihydro-5,7,7-trimethyl-5H-pyrimido[4,5-b][1,4]diazepin-6(7H)-one] is 10 to 100 nM; for `CN1C(=O)C(C)(C)CN(C2CCCC2)c2nc(Nc3ccc4c(c3)CCN4S(C)(=O)=O)ncc21` [Compound I-138, 9-Cyclopentyl-2-(1-methanesulfonyl-2,3-dihydro-1H-indol-5-ylamino)-5,7,7-trimethyl-5,7,8,9-tetrahydro-pyrimido[4,5-b][1,4]diazepin-6-one] it is 10 to 100 nM.
The figure for `CN1C(=O)C(C)(C)CN(C2CCCC2)c2nc(Nc3ccc4c(c3)C(=O)C(=O)N4)ncc21` [Compound I-139, 5-(9-Cyclopentyl-6,7,8,9-tetrahydro-5,7,7-trimethyl-6-oxo-5H-pyrimido[4,5-b][1,4]diazepin-2-ylamino)indoline-2,3-dione] is 10 to 100 nM.
Take `CN1C(=O)C(C)(C)CN(C2CCCC2)c2nc(Nc3cccc(C(=O)NC4CCOCC4)c3)ncc21` [Compound I-141, 3-(9-Cyclopentyl-6,7,8,9-tetrahydro-5,7,7-trimethyl-6-oxo-5H-pyrimido[4,5-b][1,4]diazepin-2-ylamino)-N-(tetrahydro-2H-pyran-4-yl)benzamide]: the Ki lay in the range of 10 to 100 nM.
On to `CN1C(=O)C(C)(C)CN(C2CCCC2)c2nc(Nc3cccc(C(=O)NC4CN(C(=O)OC(C)(C)C)C4)c3)ncc21` [Compound I-143, 3-[3-(9-Cyclopentyl-5,7,7-trimethyl-6-oxo-6,7,8,9-tetrahydro-5H-pyrimido[4,5-b][1,4]diazepin-2-ylamino)-benzoylamino]-azetidine-1-carboxylic acid tert-butyl ester], for which the Ki lay within 10 to 100 nM.
Compound `COCCNC(=O)c1cccc(Nc2ncc3c(n2)N(C2CCCC2)CC(C)(C)C(=O)N3C)c1` [Compound I-144, 3-(9-Cyclopentyl-6,7,8,9-tetrahydro-5,7,7-trimethyl-6-oxo-5H-pyrimido[4,5-b][1,4]diazepin-2-ylamino)-N-(2-methoxyethyl)benzamide] displayed a Ki of 10 to 100 nM.
The figure for `CN1C(=O)C(C)(C)CN(C2CCCC2)c2nc(Nc3cccc(NC(=O)CC(F)(F)F)c3)ncc21` [Compound I-145] is 10 to 100 nM; for `COCC(=O)Nc1cccc(Nc2ncc3c(n2)N(C2CCCC2)CC(C)(C)C(=O)N3C)c1` [Compound I-147, N-(3-(9-Cyclopentyl-6,7,8,9-tetrahydro-5,7,7-trimethyl-6-oxo-5H-pyrimido[4,5-b][1,4]diazepin-2-ylamino)phenyl)-2-methoxyacetamide] it is 10 to 100 nM.
The same measure for `CN1C(=O)C(C)(C)CN(C2CCCC2)c2nc(Nc3cccc(N4CCCC4=O)c3)ncc21` [Compound I-149, 2-(3-(2-oxopyrrolidin-1-yl)phenylamino)-9-cyclopentyl-8,9-dihydro-5,7,7-trimethyl-5H-pyrimido[4,5-b][1,4]diazepin-6(7H)-one]: 10 to 100 nM; for `CN1C(=O)C(C)(C)CN(C2CCCC2)c2nc(Nc3cccc(NS(C)(=O)=O)c3)ncc21` [Compound I-150, N-[3-(9-cyclopentyl-5,7,7-trimethyl-6-oxo-6,7,8,9-tetrahydro-5H-pyrimido[4,5-b][1,4]diazepin-2-ylamino)-phenyl]-methanesulfonamide]: 10 to 100 nM; for `CN1C(=O)C(C)(C)CN(C2CCCC2)c2nc(Nc3cccc(NC(=O)C4CCC4)c3)ncc21` [Compound I-151, N-(3-(9-cyclopentyl-6,7,8,9-tetrahydro-5,7,7-trimethyl-6-oxo-5H-pyrimido[4,5-b][1,4]diazepin-2-ylamino)phenyl)cyclobutanecarboxamide]: 10 to 100 nM.
`CN1C(=O)C(C)(C)CN(C2CCCC2)c2nc(Nc3cccc(C(=O)N4CC(F)(C5CC5)C4)c3)ncc21` [Compound I-152, 9-Cyclopentyl-2-[3-(3-cyclopropyl-3-fluoro-azetidine-1-carbonyl)-phenylamino]-5,7,7-trimethyl-5,7,8,9-tetrahydro-pyrimido[4,5-b][1,4]diazepin-6-one] displayed a Ki of 10 to 100 nM.
Compound `CN1C(=O)C(C)(C)CN(C2CCCC2)c2nc(Nc3cccc(-c4cccnc4)c3)ncc21` [Compound I-153, 2-(3-(pyridin-3-yl)phenylamino)-9-cyclopentyl-8,9-dihydro-5,7,7-trimethyl-5H-pyrimido[4,5-b][1,4]diazepin-6(7H)-one] came in with a Ki of 10 to 100 nM.
The same measure for `CN1C(=O)C(C)(C)CN(C2CCCC2)c2nc(Nc3cccc(NC(=O)c4ccccc4)c3)ncc21` [Compound I-154, N-(3-(9-cyclopentyl-6,7,8,9-tetrahydro-5,7,7-trimethyl-6-oxo-5H-pyrimido[4,5-b][1,4]diazepin-2-ylamino)phenyl)benzamide]: 10 to 100 nM; for `COC(=O)Nc1cccc(Nc2ncc3c(n2)N(C2CCCC2)CC(C)(C)C(=O)N3C)c1` [Compound I-155]: 10 to 100 nM.
`CN1C(=O)C(C)(C)CN(C2CCCC2)c2nc(Nc3cccc(C(=O)NC4CNC4)c3)ncc21` [Compound I-156, 3-(9-cyclopentyl-6,7,8,9-tetrahydro-5,7,7-trimethyl-6-oxo-5H-pyrimido[4,5-b][1,4]diazepin-2-ylamino)-N-(azetidin-3-yl)benzamide] came in with a Ki of 10 to 100 nM.
